The nature of the series: Solubility studies (Example 4). In kind it is physicochemical. The protocol: In order to determine the solubility of (R)-3-(4-(7H-pyrrolo[2,3-d]pyrimidin-4-yl)-1H-pyrazol-1-yl)-3-cyclopentylpropanenitrile (free base) or its phosphate salt, approximately 5 mL of a potential solvent was added to approximately 50 mg of the API or its salt at room temperature. The mixtures were suspended and rotated on a wheel. If the mixtures became clear solutions, more solid material was added. The suspensions were then suspended over 24 hours. The samples were filtered through 0.2 micron filters. The liquid portions were collected and diluted with 50/50 water methanol/water. The concentrations of the diluted samples were analyzed by HPLC. When the free base or salt was fairly insoluble, the results are approximate only.

This note sets out measurements from patent US12544381B2, “Topical formulation for JAK inhibitor” (Incyte Corporation, priority 2010, dated 2026).

In general, Solubility refers to the dissolved amount per volume that the medium holds. Low readings indicate a poorly soluble substance, high ones a readily soluble substance.

Structures can show the parent of a compound that is named as a salt.

In the case of `N#CC[C@H](C1CCCC1)n1cc(-c2ncnc3[nH]ccc23)cn1` [Phosphate Salt, (R)-3-(4-(7H-pyrrolo[2,3-d]pyrimidin-4-yl)-1H-pyrazol-1-yl)-3-cyclopentylpropanenitrile Phosphoric Acid Salt], the Solubility reads like this: (Benzyl alcohol) 3000 µg/mL; (Ethanol) 7300 µg/mL; (Glycerin) 11000 µg/mL; (Isopropanol) 600 µg/mL; (Isosorbide dimethyl ether) 400 µg/mL; (Olelyl alcohol) 100 µg/mL. Also, the Solubility reads like this: (PEG 200) 23000 µg/mL; (PEG 300) 14000 µg/mL; (Propylene glycol) 24000 µg/mL; (Transcutol) 10000 µg/mL; (Trolamine) 51000 µg/mL; (Water/PEG 200 (50/50)) 23000 µg/mL. Also, the Solubility stood at 18000 µg/mL (Water/glycerin/trolamine (40/40/20)); 21000 µg/mL (Water/glyercin (50/50)); 2700 µg/mL (Water, room temperature); 1500 µg/mL (pH 4, citric buffer, 0.1M); 200 µg/mL (pH 6, citric buffer, 0.1M).
